PMC3933009, “Identification and characterization of a galacturonic acid transporter from Neurospora crassa and its application for Saccharomyces cerevisiae fermentation processes” (Biotechnology for Biofuels, 2014)

Assays:
Format in all cases: cell-based
[1] = target: T1, D-galacturonate reductase (GAAA) (Aspergillus niger, UniProt A8DRH9); experiment: bioconversion in engineered yeast, LC-MS/MS of L-galactonic acid; settings: 90 μM D-GalA, pH 5.8, 30°C; endogenous NADPH; GAT-1 co-expressed; native yeast reductase background
T1 construct: codon-optimized gene, Cen6/leu2 vector with TDH3 promoter, expressed in S. cerevisiae with gat-1-GFP integrated
T1 sequence (A8DRH9 1-412): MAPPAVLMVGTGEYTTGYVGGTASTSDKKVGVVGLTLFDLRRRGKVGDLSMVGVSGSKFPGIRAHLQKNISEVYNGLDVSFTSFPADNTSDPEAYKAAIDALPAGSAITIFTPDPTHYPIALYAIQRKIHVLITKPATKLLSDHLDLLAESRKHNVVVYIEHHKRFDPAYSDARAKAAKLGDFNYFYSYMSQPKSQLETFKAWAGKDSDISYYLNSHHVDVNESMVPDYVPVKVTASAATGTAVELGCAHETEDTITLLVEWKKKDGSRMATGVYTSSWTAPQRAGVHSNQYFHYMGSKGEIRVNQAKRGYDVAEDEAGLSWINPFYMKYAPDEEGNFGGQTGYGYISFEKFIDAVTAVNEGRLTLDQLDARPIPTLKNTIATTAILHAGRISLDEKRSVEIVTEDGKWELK

[2] = target: T2, uronate dehydrogenase (UDH) (Agrobacterium fabrum, UniProt Q7CRQ0); experiment: bioconversion in engineered yeast, LC-MS/MS of meso-galactaric acid; settings: 90 μM D-GalA, pH 5.8, 30°C; endogenous NAD+; GAT-1 co-expressed
T2 construct: open reading frame, Cen6/leu2 vector with TDH3 promoter, expressed in S. cerevisiae with gat-1-GFP integrated
T2 sequence (Q7CRQ0 1-265): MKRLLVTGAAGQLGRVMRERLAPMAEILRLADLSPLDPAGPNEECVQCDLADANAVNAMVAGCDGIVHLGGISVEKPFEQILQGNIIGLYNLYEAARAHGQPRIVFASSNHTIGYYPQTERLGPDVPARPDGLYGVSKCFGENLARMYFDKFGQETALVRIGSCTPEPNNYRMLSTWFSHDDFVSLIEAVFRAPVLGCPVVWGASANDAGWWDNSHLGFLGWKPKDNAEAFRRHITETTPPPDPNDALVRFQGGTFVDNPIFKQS

[3] = target: T3, quinate permease (NCU06026; quinate-Y) (Neurospora crassa, UniProt P11636); experiment: uptake by induced mycelia, WT versus deletion strain, MS detection; settings: 90 μM quinic acid plus D-GalA, Vogel's salts, 25°C
T3 construct: gene qa-y; native protein in mycelia; wild type compared with deletion strain
T3 sequence (P11636 whole entry): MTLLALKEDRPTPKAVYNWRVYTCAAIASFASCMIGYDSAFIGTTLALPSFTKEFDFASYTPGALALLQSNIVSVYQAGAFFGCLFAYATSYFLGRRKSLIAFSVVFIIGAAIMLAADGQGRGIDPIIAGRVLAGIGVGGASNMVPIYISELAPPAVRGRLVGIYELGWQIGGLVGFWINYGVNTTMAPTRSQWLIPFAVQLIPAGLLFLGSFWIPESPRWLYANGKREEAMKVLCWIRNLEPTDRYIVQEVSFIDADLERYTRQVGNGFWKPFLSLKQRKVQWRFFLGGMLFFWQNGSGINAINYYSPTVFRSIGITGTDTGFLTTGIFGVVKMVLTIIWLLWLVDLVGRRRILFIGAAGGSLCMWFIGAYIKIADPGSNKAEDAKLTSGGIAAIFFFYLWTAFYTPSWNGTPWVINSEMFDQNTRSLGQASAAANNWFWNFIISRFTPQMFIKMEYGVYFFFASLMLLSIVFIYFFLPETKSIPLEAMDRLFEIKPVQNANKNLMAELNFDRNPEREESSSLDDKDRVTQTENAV

Row | Structure (SMILES) | bioconversion in engineered yeast, LC-MS/MS of L-galactonic acid [1] | bioconversion in engineered yeast, LC-MS/MS of meso-galactaric acid [2] | uptake by induced mycelia, WT versus deletion strain, MS detection [3]
1 | O=C(O)[C@H]1OC(O)[C@H](O)[C@@H](O)[C@H]1O (stereo partly drawn) [D-GalA] | expression of the reductase resulted in a higher product yield (GAAA/GAT-1) | GalAA production was enzyme (UDH)dependent | 
2 | O=C(O)[C@]1(O)C[C@@H](O)[C@@H](O)[C@H](O)C1 [quinic acid] |  |  | almost completely unable to take up qa, indicating that it is the only physiologically relevant transporter
